Columns and labels:
7W WT APP751 CHO cells = experiment: Screening of dihydropyridine compounds (Maybridge), Aβ1-40 and Aβ1-42 ELISA (Example 2); format: cell-based, Chinese hamster; conditions: 30 μM, 24 hours (FIG. 5A, 5B)
Method: Dihydropyridine compounds were obtained from Maybridge (England). Each compound was dissolved in DMSO. 7W WT APP751 CHO cells overexpressing APP751 were plated into 96-well culture plates in 200 μL of culture medium. Each compound from the library was added to confluent cells to a final concentration of 30 μM. After 24 hours of treatment, culture medium was collected and dissolved 10-fold and 2-fold for measuring the level of Aβ1-40 and Aβ1-42, respectively. Aβ1-40 and Aβ1-42 were determined using commercially available ELISAs (Biosource, CA), following the recommendations of the manufacturer.

melting point | Compound | concentration of Aβ1-40 compared to controls (7W WT APP751 CHO cells) | concentration of Aβ1-42 compared to controls (7W WT APP751 CHO cells) | concentration of total β-amyloid (Aβ1-40+Aβ1-42) compared to controls (7W WT APP751 CHO cells)
98 to 99 °C | C=CCOC(=O)C1=C(C)NC(C)=C(C(=O)OCC=C)C1c1ccccc1Cl [Example 16, Diallyl 4-(2-chlorophenyl)-1,4-dihydro-2,6-dimethylpyridine-3,5-dicarboxylate] |  |  | 
120 to 121 °C | COCCOC(=O)C1=C(C)NC(C)=C(C(=O)OCCOC)C1c1ccccc1Cl [Example 10, Bis(2-methoxyethyl) 4-(2-chlorophenyl)-1,4-dihydro-2,6-dimethylpyridine-3,5-dicarboxylate] |  |  | 
118 to 119 °C | CCOC(=O)C1=C(C)NC(C)=C(C(=O)OCC)C1c1ccc(F)c(Br)c1 [Example 41, Diethyl 4-(3-bromo-4-fluorophenyl)-1,4-dihydro-2,6-dimethylpyridine-3,5-dicarboxylate] |  |  | 
191.5 to 192.5 °C | CC1=C(C(=O)OC(C)(C)C)C(c2ccc(Cl)cc2)C(C(=O)OC(C)(C)C)=C(C)N1 [Example 23, Di-tert-butyl 4-(4-chlorophenyl)-1,4-dihydro-2,6-dimethylpyridine-3,5-dicarboxylate] |  |  | 
 | CCOC(=O)C1=C(C)NC(C)=C(C(=O)OCC)C1c1ccc(Cl)cc1Cl [RJC 03403, diethyl 4-(2,4-dichlorophenyl)-2,6-dimethyl-1,4-dihydro-3,5-pyridinedicarboxylate] | significantly decreased | significantly decreased | significantly decreased
 | CCOC(=O)C1=C(C)NC(C)=C(C(=O)OCC)C1c1ccc([N+](=O)[O-])cc1 [JFD 03266, diethyl 2,6-dimethyl-4-(4-nitrophenyl)-1,4-dihydropyridine-3,5-dicarboxylate] | significantly decreased |  | significantly decreased
 | CCOC(=O)C1=C(C)NC(C)=C(C(=O)OCC)C1c1ccc(Cl)cc1 [BTB 14328, diethyl 4-(4-chlorophenyl)-2,6-dimethyl-1,4-dihydropyridine-3,5-dicarboxylate] | significantly decreased | significantly decreased | significantly decreased
 | CCOC(=O)C1=C(C)NC(C)=C(C(=O)OCC)C1c1ccc(Cl)c(Cl)c1 [JFD 03294, diethyl 4-(3,4-dichlorophenyl)-2,6-dimethyl-1,4-dihydropyridine-3,5-dicarboxylate] | significantly decreased | significantly decreased | significantly decreased
 | CCOC(=O)C1=C(C)NC(C)=C(C(=O)OCC)C1c1ccc(-c2cc(C(F)(F)F)cc(C(F)(F)F)c2)o1 [CD 04170, diethyl 4-{5-[3,5-di(trifluoromethyl)phenyl]-2-furyl}-2,6-dimethyl-1,4-dihydro-pyridine-3,5-dicarboxylate] | significantly decreased | significantly decreased | significantly decreased
 | N#Cc1c(-c2cn(-c3ccccc3)nc2-c2ccccc2)cc(-c2ccccc2)[nH]c1=O [HTS 07578, 4-(1,3-diphenyl-1H-pyrazol-4-yl)-2-oxo-6-phenyl-1,2-dihydro-3-pyridinecarbonitrile] | significantly decreased | significantly decreased | significantly decreased
 | CCOC(=O)C1=C(C)NC(C)=C(C(=O)OCC)C1c1ccc(Br)cc1 [JFD 01209, diethyl 4-(4-bromophenyl)-2,6-dimethyl-1,4-dihydropyridine-3,5-dicarboxylate] | significantly decreased | significantly decreased | significantly decreased
